In PubChem BioAssay (NCI):
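The compound was tested at five concentrations on cells cultured in 96-well plates, with a 48-hour exposure period. Definition used: TGI = concentration required for complete inhibition of growth.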

Experiments:
Assay in all cases: NCI tumour cell line growth inhibition, 48 h
SK-MEL-5 melanoma = system: SK-MEL-5 melanoma
A549 NSCLC = system: A549 NSCLC
HCT-15 colon = system: HCT-15 colon
M14 melanoma = system: M14 melanoma
MOLT-4 leukemia = system: MOLT-4 leukemia
OVCAR-4 ovarian = system: OVCAR-4 ovarian
A498 renal = system: A498 renal
HCC-2998 colon = system: HCC-2998 colon
MDA-N = system: MDA-N
SNB-78 CNS = system: SNB-78 CNS
DLD-1 colon = system: DLD-1 colon
M19-MEL melanoma = system: M19-MEL melanoma

Structure (SMILES) | TGI (SK-MEL-5 melanoma) [µM] | TGI (A549 NSCLC) [µM] | TGI (HCT-15 colon) [µM] | TGI (M14 melanoma) [µM] | TGI (MOLT-4 leukemia) [µM] | TGI (OVCAR-4 ovarian) [µM] | TGI (A498 renal) [µM] | TGI (HCC-2998 colon) [µM] | TGI (MDA-N) [µM] | TGI (SNB-78 CNS) [µM] | TGI (DLD-1 colon) [µM] | TGI (M19-MEL melanoma) [µM]
COc1ccc(-c2ccc(C(=O)C=P(c3ccccc3)(c3ccccc3)c3ccccc3)cc2)cc1 | 22.4 | 25.9 | 29.6 | 31.6 | 10.9 | 25 | 31.9 | 15.2 | 28.9 | – | – | –
C=C(NC(=O)C(=C)NC(=O)c1ccc2c(n1)-c1coc(n1)C(=C)NC(=O)C(=C)NC(=O)c1nc(oc1C)C(=C)NC(=O)C(C(C)(C)O)NC(=O)C(=C)NC(=O)c1coc(n1)/C(=C/C)NC(=O)[C@H]([C@@H](C)O)NC(=O)c1csc-2n1)C(N)=O (some centres undefined) | > 87.5 | > 87.5 | > 87.5 | > 87.5 | > 87.5 | > 87.5 | > 87.5 | > 87.5 | > 87.5 | – | – | –
C=CCC(O[Si](C)(C)C(C)(C)C)c1cc(O[Si](C)(C)C(C)(C)C)ccc1OC (centres undefined) | > 100 | > 100 | > 100 | – | > 100 | > 100 | > 100 | > 100 | – | > 100 | > 100 | –
O=P1(N(CCCl)CCCl)Oc2ccc(Cl)cc2C(C(Cl)(Cl)Cl)c2cc(Cl)ccc2O1 (centres undefined) | 24 | > 100 | 23.5 | 98.4 | > 100 | > 100 | > 100 | 34.3 | 87.7 | – | – | –
Nc1[nH]c(=O)nc2c1ncn2C1OC(CO)C(O)C1O (centres undefined) | > 100 | > 100 | 95.4 | > 100 | 63.3 | > 100 | > 100 | 88.9 | > 100 | – | – | –
Cc1ccccc1NC(=O)O/N=C(\Cl)C(C)C | 25.9 | 36.8 | 4.17 | 12.1 | > 28 | 23.2 | 36.4 | 31.5 | 8.58 | – | – | –
CC1=NN(C(=O)CC(=O)Nc2cccc(C)c2)C(=O)C1N=Nc1ccc(S(=O)(=O)CCOS(=O)(=O)O)cc1 (centres undefined) | 2.88 | 50.6 | 4.83 | 17.3 | > 31.7 | 27 | 37.1 | 5.51 | 0.902 | – | – | –
Nc1c(C(=O)c2ccc(Cl)c(Cl)c2)[nH]c(NCc2ccccc2)c1C(=S)Nc1ccccc1 | – | 23.3 | 6.27 | 12.6 | > 100 | 15.8 | 31.5 | 3.48 | 14.5 | – | – | –
CC1=C(CO)C(=O)OC(C(C)C2CCC3C4CC5OC56C(O)C(N5CC5)=CC(=O)C6(C)C4CCC23C)C1 (centres undefined) | 25.4 | 29.6 | 12.9 | 24.6 | 8.52 | 20.6 | 16.3 | 9.73 | – | 46.9 | 17.6 | 23.5
N#CCCC(C=O)(CCC#N)CCC#N | > 100 | > 100 | > 100 | > 100 | – | > 100 | > 100 | > 100 | > 100 | – | – | –
C[s+]1c2ccccc2c2ccccc21 | > 100 | > 100 | > 100 | > 100 | > 100 | > 100 | – | > 100 | – | > 100 | – | > 100
CCOc1ccc2nc(NC(=O)C(=O)C(C(=O)c3ccccc3F)C3OC(=O)c4ccccc43)sc2c1 (centres undefined) | 33.8 | 76.4 | 38.2 | 32.5 | > 100 | 77.6 | > 100 | 29.7 | – | 74.4 | > 100 | 27
O=C(O)c1c(CC(Cc2ccc3c(c2)CCC3)C(=O)O)ccc2c1CCC2 (centres undefined) | > 100 | > 100 | > 100 | > 100 | > 100 | > 100 | > 100 | > 100 | > 100 | – | – | –
NC(=O)[C@H](Cc1ccc(O)cc1)Nc1c(O)c2c(c(O)c1Cl)C(=O)C=CC2=O | 3.04 | > 10 | 3.89 | > 7 | 2.43 | 3.41 | > 10 | > 3.16 | 4.1 | – | – | –
Clc1ccc2c(NCCCCCCNc3ccnc4cc(Cl)ccc34)ccnc2c1 | 10.9 | 20.7 | 8.08 | 3.51 | 8.09 | 5.93 | 42.3 | 3.32 | 8.86 | 3.87 | 10.3 | 8.83
CC(=O)NC1C(OCc2ccccc2)OC(CO)C(O)C1OC(C)C(=O)N[C@@H](C)C(=O)N[C@H](CCC(=O)NCCNCCNc1c2ccccc2nc2cccc([N+](=O)[O-])c12)C(N)=O (some centres undefined) | 0.0635 | 1.71 | 1.63 | 0.436 | > 100 | 0.0817 | 0.32 | 0.072 | 0.305 | – | – | –
CC(C)(C)C(=O)Nc1c(C=O)ccc2[nH]cnc12 | > 100 | > 100 | > 100 | > 100 | 73.7 | > 100 | > 100 | > 100 | > 100 | – | – | –
CC(C)(CO[C@H]1C[C@H]2CC[C@@]1(C)C2(C)C)[N+](=O)[O-] | 31.6 | > 100 | 51.6 | 27.1 | 50.5 | 76 | 51.8 | 5.19 | 29.4 | – | – | –
COC1(CC[C@@H](C)COC2OC(CO)C(O)C(O)C2O)OC2C[C@H]3[C@@H]4CC[C@H]5C[C@@H](OC6OC(CO)C(OC7OC(CO)C(O)C(O)C7O)C(O)C6OC6OC(C)C(O)C(O)C6O)[C@H](O)C[C@]5(C)[C@H]4CC[C@]3(C)C2[C@@H]1C (some centres undefined) | 3.36 | 3.83 | > 22.8 | 3.36 | 8.14 | 3.96 | 3.38 | 3.24 | 4.55 | – | – | –
Cc1cn(CCCCCCOC(=O)NC(CCCNC(N)=O)C(=O)O)c(=O)[nH]c1=O (centres undefined) | – | > 100 | > 100 | > 100 | > 100 | > 100 | > 100 | > 100 | > 100 | – | – | –
